Key:
bedstraw = assay: Test B pre/postemergence bedstraw; format: in vivo, Galium aparine
Summary of the method: (§1)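 Response is a visual 0-to-10 score relative to untreated plants, where 0 means no effect and 10 means complete control, taken twelve to sixteen days after application. Treatments went onto soil at planting and onto foliage of 1- to 4-leaf plants, using a surfactant-containing non-phytotoxic solvent.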

surinam grass = assay: Test B pre/postemergence surinam grass; format: in vivo, Brachiaria decumbens
Summary of the method: as §1

corn = assay: Test B pre/postemergence corn; format: in vivo, Zea mays; details: for Corn plant response rating: scale of 0 to 10 where 0 is no effect and 10 is complete control
Summary of the method: as §1

crabgrass = assay: Test B pre/postemergence crabgrass; format: in vivo, Digitaria sanguinalis; details: for Crabgrass plant response rating: scale of 0 to 10 where 0 is no effect and 10 is complete control
Summary of the method: as §1

common ragweed = assay: Test D common ragweed; format: in vivo, Ambrosia elatior; details: Postemergence, 0 to 100 scale
dallisgrass = assay: Test D dallisgrass; format: in vivo, Paspalum dilatatum; details: Postemergence, 0 to 100 scale
goosegrass = assay: Test D goosegrass; format: in vivo, Eleusine indica; details: Postemergence, 0 to 100 scale
Johnson grass = assay: Test D Johnson grass; format: in vivo, Sorghum halepense; details: Postemergence, 0 to 100 scale
large crabgrass = assay: Test D large crabgrass; format: in vivo, Digitaria sanguinalis; details: Postemergence, 0 to 100 scale
Spanishneedles = assay: Test D Spanishneedles; format: in vivo, Bidens bipinnata; details: Postemergence, 0 to 100 scale
Green foxtail [1] = assay: Test D green foxtail; format: in vivo; details: Postemergence, 0 to 100 scale, 0 no injury, 100 complete control
Green foxtail [2] = assay: Test D green foxtail; format: in vivo; details: Postemergence, 0 to 100 scale, 0 no injury, 100 complete control; remark: listed apart in the source
Green foxtail [3] = assay: Test D green foxtail; format: in vivo; details: Postemergence, 0 to 100 scale, 0 no injury, 100 complete control; remark: listed apart in the source
[4] = Postemergence, Rate 125 g/ha, scale 0 to 10, 0 is no effect, 10 is complete control
[5] = Preemergence, Rate 62 g/ha, scale 0 to 10 (0 no effect, 10 complete control)
[6] = Preemergence, Rate 250 g/ha, scale of 0 to 10 where 0 is no effect and 10 is complete control
[7] = Preemergence, Rate 500 g/ha, scale of 0 to 10 where 0 is no effect and 10 is complete control
[8] = Rate 62 g/ha, Postemergence, scale of 0 to 10 where 0 is no effect and 10 is complete control
[9] = Rate 250 g/ha, Postemergence, scale of 0 to 10 where 0 is no effect and 10 is complete control
[10] = Rate 500 g/ha, Postemergence, scale 0 to 10, 0 no effect, 10 complete control
[11] = Rate 16 g/ha, 0 no injury, 100 complete control
[12] = Rate 64 g/ha, 0 no injury, 100 complete control
[13] = Rate 125 g/ha, 0 no injury, 100 complete control
[14] = Rate 32 g/ha, 0 no injury, 100 complete control

Compound: COCC(C)n1c(=O)on(C(=O)N(c2ccc(F)cc2F)C(C)C)c1=O (centres unmarked) [Compound 357]
- Plant response rating, Bedstraw (bedstraw; [4]): 0
- Plant response rating, Bedstraw (bedstraw; [5]): 10
- Bedstraw plant response rating (0 to 10 scale) (bedstraw; Preemergence, Rate 125 g/ha): 10
- Bedstraw plant response rating (bedstraw; [6]): 10
- Bedstraw plant response rating (bedstraw; [7]): 10
- Bedstraw plant response rating (bedstraw; [8]): 0
- Plant response rating, Bedstraw (bedstraw; [9]): 0
- Plant response rating, Bedstraw (bedstraw; [10]): 5
- Plant response rating, B. signalgrass (surinam grass; [4]): 0
- Plant response rating, B. signalgrass (surinam grass; [5]): 1
- B. signalgrass plant response rating (0 to 10 scale, 0 is no effect, 10 is complete control) (surinam grass; Preemergence, Rate 125 g/ha): 3
- B. signalgrass plant response rating (surinam grass; [6]): 6
- B. signalgrass plant response rating (surinam grass; [7]): 7
- B. signalgrass plant response rating (surinam grass; [8]): 0
- Plant response rating, B. signalgrass (surinam grass; [9]): 4
- Plant response rating, B. signalgrass (surinam grass; [10]): 7
- Plant response rating, Corn (corn; [4]): 0
- Plant response rating, Corn (corn; [5]): 0
- Corn plant response rating (0 to 10 scale) (corn; Preemergence, Rate 125 g/ha): 0
- Corn plant response rating (corn; Preemergence, Rate 250 g/ha): 6
- Corn plant response rating (corn; Preemergence, Rate 500 g/ha): 9
- Corn plant response rating (corn; Rate 62 g/ha, Postemergence): 0
- Plant response rating, Corn (corn; [10]): 3
- Plant response rating, Crabgrass (crabgrass; [4]): 2
- Plant response rating, Crabgrass (crabgrass; [5]): 9
- Crabgrass plant response rating (0 to 10 scale) (crabgrass; Preemergence, Rate 125 g/ha): 9
- Crabgrass plant response rating (crabgrass; Preemergence, Rate 250 g/ha): 9
- Crabgrass plant response rating (crabgrass; Preemergence, Rate 500 g/ha): 10
- Crabgrass plant response rating (crabgrass; Rate 62 g/ha, Postemergence): 2
- Plant response rating, Crabgrass (crabgrass; [10]): 5
- Plant response rating, C. ragweed (common ragweed; [11]): 0
- Plant response rating, C. ragweed (common ragweed; [12]): 0
- Plant response rating, C. ragweed (common ragweed; [13]): 0
- Plant response rating, C. ragweed (common ragweed; Rate 250 g/ha): 50
- Plant response rating, Dallisgrass (dallisgrass; [11]): 0
- Plant response rating, Dallisgrass (dallisgrass; [14]): 20
- Plant response rating, Dallisgrass (dallisgrass; [12]): 100
- Plant response rating, Dallisgrass (dallisgrass; [13]): 100
- Plant response rating, Dallisgrass (dallisgrass; Rate 250 g/ha): 100
- Plant response rating, Goosegrass (goosegrass; [11]): 90
- Plant response rating, Goosegrass (goosegrass; [14]): 100
- Plant response rating, Goosegrass (goosegrass; [12]): 100
- Plant response rating, Goosegrass (goosegrass; [13]): 100
- Plant response rating, Goosegrass (goosegrass; Rate 250 g/ha): 100
- Plant response rating, Johnsongrass (Johnson grass; [11]): 0
- Plant response rating, Johnsongrass (Johnson grass; [14]): 0
- Plant response rating, Johnsongrass (Johnson grass; [12]): 0
- Plant response rating, Johnsongrass (Johnson grass; [13]): 60
- Plant response rating, Johnsongrass (Johnson grass; Rate 250 g/ha): 90
- Plant response rating, Large crabgrass (large crabgrass; [11]): 100
- Plant response rating, Large crabgrass (large crabgrass; [14]): 100
- Plant response rating, Large crabgrass (large crabgrass; [12]): 100
- Plant response rating, Large crabgrass (large crabgrass; [13]): 100
- Plant response rating, Large crabgrass (large crabgrass; Rate 250 g/ha): 100
- Plant response rating, Spanishneedles (Spanishneedles; [11]): 10
- Plant response rating, Spanishneedles (Spanishneedles; [14]): 10
- Spanishneedles plant response rating (Spanishneedles; [12]): 10
- Spanishneedles plant response rating (Spanishneedles; [13]): 10
- Plant response rating, Spanishneedles (Spanishneedles; Rate 250 g/ha): 20
- Plant response rating, Green foxtail (Green foxtail [1]; Rate 64 g/ha): 100
- Plant response rating, Green foxtail (Green foxtail [1]; Rate 125 g/ha): 100
- Green foxtail plant response rating (Green foxtail [2]; Rate 64 g/ha): 100
- Green foxtail plant response rating (Green foxtail [2]; Rate 125 g/ha): 100
- Plant response rating, Green foxtail (Green foxtail [3]; Rate 16 g/ha): 10
- Plant response rating, Green foxtail (Green foxtail [3]; Rate 32 g/ha): 30

Compound: CCC(CC)n1c(=O)on(C(=O)N(c2ccc(F)cc2)C(C)C)c1=O [Compound 358]
- Plant response rating, Bedstraw (bedstraw; [4]): 2
- Plant response rating, Bedstraw (bedstraw; [5]): 0
- Bedstraw plant response rating (0 to 10 scale) (bedstraw; Preemergence, Rate 125 g/ha): 9
- Bedstraw plant response rating (bedstraw; [6]): 10
- Bedstraw plant response rating (bedstraw; [7]): 10
- Bedstraw plant response rating (bedstraw; [8]): 0
- Plant response rating, Bedstraw (bedstraw; [9]): 3
- Plant response rating, Bedstraw (bedstraw; [10]): 6
- Plant response rating, B. signalgrass (surinam grass; [4]): 0
- Plant response rating, B. signalgrass (surinam grass; [5]): 1
- B. signalgrass plant response rating (0 to 10 scale, 0 is no effect, 10 is complete control) (surinam grass; Preemergence, Rate 125 g/ha): 3
- B. signalgrass plant response rating (surinam grass; [6]): 5
- B. signalgrass plant response rating (surinam grass; [7]): 7
- B. signalgrass plant response rating (surinam grass; [8]): 0
- Plant response rating, B. signalgrass (surinam grass; [9]): 1
- Plant response rating, B. signalgrass (surinam grass; [10]): 2
- Plant response rating, Corn (corn; [4]): 0
- Plant response rating, Corn (corn; [5]): 0
- Corn plant response rating (0 to 10 scale) (corn; Preemergence, Rate 125 g/ha): 0
- Corn plant response rating (corn; Preemergence, Rate 250 g/ha): 2
- Corn plant response rating (corn; Preemergence, Rate 500 g/ha): 6
- Corn plant response rating (corn; Rate 62 g/ha, Postemergence): 0
- Plant response rating, Corn (corn; [10]): 0
- Plant response rating, Crabgrass (crabgrass; [4]): 0
- Plant response rating, Crabgrass (crabgrass; [5]): 9
- Crabgrass plant response rating (0 to 10 scale) (crabgrass; Preemergence, Rate 125 g/ha): 10
- Crabgrass plant response rating (crabgrass; Preemergence, Rate 250 g/ha): 10
- Crabgrass plant response rating (crabgrass; Preemergence, Rate 500 g/ha): 10
- Crabgrass plant response rating (crabgrass; Rate 62 g/ha, Postemergence): 0
- Plant response rating, Crabgrass (crabgrass; [10]): 7
- Plant response rating, C. ragweed (common ragweed; [11]): 0
- Plant response rating, C. ragweed (common ragweed; [14]): 0
- Plant response rating, C. ragweed (common ragweed; [12]): —30
- Plant response rating, C. ragweed (common ragweed; [13]): 70
- Plant response rating, C. ragweed (common ragweed; Rate 250 g/ha): 70
- Plant response rating, Dallisgrass (dallisgrass; [11]): 0
- Plant response rating, Dallisgrass (dallisgrass; [14]): 30
- Plant response rating, Dallisgrass (dallisgrass; [12]): 100
- Plant response rating, Dallisgrass (dallisgrass; [13]): 100
- Plant response rating, Dallisgrass (dallisgrass; Rate 250 g/ha): 100
- Plant response rating, Goosegrass (goosegrass; [11]): 0
- Plant response rating, Goosegrass (goosegrass; [14]): 20
- Plant response rating, Goosegrass (goosegrass; [12]): 100
- Plant response rating, Goosegrass (goosegrass; [13]): 100
- Plant response rating, Goosegrass (goosegrass; Rate 250 g/ha): 100
- Plant response rating, Johnsongrass (Johnson grass; [11]): 0
- Plant response rating, Johnsongrass (Johnson grass; [14]): 0
- Plant response rating, Johnsongrass (Johnson grass; [12]): 0
- Plant response rating, Johnsongrass (Johnson grass; [13]): 0
- Plant response rating, Johnsongrass (Johnson grass; Rate 250 g/ha): 100
- Plant response rating, Large crabgrass (large crabgrass; [11]): 0
- Plant response rating, Large crabgrass (large crabgrass; [14]): 40
- Plant response rating, Large crabgrass (large crabgrass; [12]): 100
- Plant response rating, Large crabgrass (large crabgrass; [13]): 100
- Plant response rating, Large crabgrass (large crabgrass; Rate 250 g/ha): 100
- Plant response rating, Spanishneedles (Spanishneedles; [11]): 0
- Plant response rating, Spanishneedles (Spanishneedles; [14]): 0
- Spanishneedles plant response rating (Spanishneedles; [12]): 0
- Spanishneedles plant response rating (Spanishneedles; [13]): 0
- Plant response rating, Spanishneedles (Spanishneedles; Rate 250 g/ha): 0
- Plant response rating, Green foxtail (Green foxtail [1]; Rate 64 g/ha): 100
- Plant response rating, Green foxtail (Green foxtail [1]; Rate 125 g/ha): 100
- Green foxtail plant response rating (Green foxtail [2]; Rate 64 g/ha): 100
- Green foxtail plant response rating (Green foxtail [2]; Rate 125 g/ha): 100
- Plant response rating, Green foxtail (Green foxtail [3]; Rate 16 g/ha): 0
- Plant response rating, Green foxtail (Green foxtail [3]; Rate 32 g/ha): 30

— US6737383B1, “Herbicidal oxadiazolidines” (priority 1999, dated 2004)
